Results on 21 compounds are retold here after patent US20100210694A1 (NICOX S.A., priority 2007, published 2010).

One data set has as its system rat aorta strips. Put plainly: Vasodilating activity on precontracted rat aorta strips. Type of data set: cell-based. The following applies: endothelium-denuded rat aortic strips contracted with 1 μM L-phenylephrine; for EC50: read-out: vasodilating activity EC50 ± SE. The procedure:
Thoracic aortas were isolated from male Wistar rats weighing 180-200 g. The endothelium was removed and the vessels were helically cut: three strips were obtained from each aorta. The tissues were mounted under 1.0 g tension in organ baths containing 30 ml of Krebs-bicarbonate buffer with the following composition (mM): NaCl 111.2, KCl 5.0, CaCl2 2.5, MgSO4 1.2, KH2PO4 1.0, NaHCO3 12.0, glucose 11.1, maintained at 37° C. and gassed with 95% O2-5% CO2 (pH=7.4). The aortic strips were allowed to equilibrate for 120 min and then contracted with 1 μM L-phenylephrine. When the response to the agonist reached a plateau, cumulative concentrations of the vasodilating agent were added.
All the compounds of the invention were capable to relax precontracted rat aorta strips in a concentration dependent manner.
When the vasodilator experiments were repeated in the presence of 1 μM ODQ (1H-[1,2,4]oxadiazolo[4,3-a]quinoxalin-1-one), a well known inhibitor of the soluble guanylate cyclase (sGC), a decrease in the vasodilator potencies was observed.

In another data set the test system is human platelets. Briefly: Inhibition of platelet aggregation in vitro. Type of data set: cell-based. The following applies: human PRP, collagen 1.0 μg/mL. The procedure: Platelet rich plasma (PRP) is prepared by centrifugation of citrated blood at 200 g for 20 minutes. […] Collagen (1.0 μg/mL) is used as platelet activator in PRP. The inhibitory activity of the compounds is tested by addition of drug to PRP 10 or 30 min before addition of the stimulus.
The antiaggregatory activity of the compounds of the invention is evaluated as % inhibition of platelet aggregation compared to control samples.

Data set [1] is described as follows: Hydrolysis in human serum. Type of data set: in vitro ADME. The settings on record: male, 37 °C, compound 250 μM, read-out: Human serum stability t1/2. As to the method:
A solution of each compound of the invention (10 mM) in acetonitrile was added to human serum (from human male AB plasma, Sigma) preheated at 37° C., the final concentration of the compound was 250 μM. Resulting solution were incubated at 37±0.5° C. and at appropriate time intervals 500 μL of reaction mixture was withdrawn and added to 750 μL of acetonitrile containing 0.1% trifluoroacetic acid in order to deproteinize the serum. Sample was sonicated, vortexed and then centrifuged for 10′ at 2150 g. The clear supernatant was filtered by 0.45 μm PTFE filters (Alltech) and analysed by RP-HPLC.
(§1) Analyses were carried out with a HP 1100 chromatograph system (Agilent Technologies, Palo Alto, Calif., USA) equipped with a quaternary pump (model G1311A), a membrane degasser (G1379A), a diode-array detector (DAD) (model G1315B) integrated in the HP1100 system. Data analysis was done using a HP ChemStation system (Agilent Technologies). The analytical column was a Nucleosil 100-5018 Nautilus (250×4.6 mm, 5 μm particle size) (Macherey-Nagel). The mobile phase consisting of acetonitrile/water (55/45) with 0.1% trifluoroacetic acid and the flow-rate was 1.2 mL/min. The injection volume was 20 μL (Rheodyne, Cotati, Calif.). The column effluent was monitored at 240 nm (for salicylic acid) and at 226 nm (for all the other products) and referenced against a 360 nm wavelength. Quantitation was done by comparison of peak areas with standards chromatographed under the same conditions. The hydrolysis followed first-order kinetics. The observed pseudo-first-order rate constants (kobs) were calculated from the slopes of linear plots of the natural logarithms of percent remaining products against time and the corresponding half-lives (t1/2) were obtained from […]

Data set [2] is described as follows: Hydrolysis in acidic medium (pH 1) and in phosphate buffer (pH 7.4). Format: physicochemical. The settings on record: for Stability in buffered solutions pH 1 % unchanged after 6 h: HCl 0.1M, pH 1, 37 °C; for Stability in buffered solutions pH 1 % unchanged after 6 h / Stability in buffered solutions pH 7.4 % unchanged after 6 h: 250 μM; for Stability in buffered solutions pH 7.4 % unchanged after 6 h: phosphate buffer 50 mM pH 7.4, 37 °C. As to the method:
A solution of each compound of the invention (10 mM) in acetonitrile was added to a HCl 0.1M or to a phosphate buffer 50 mM pH=7.4, containing, when necessary, 10-20% of acetonitrile as cosolvent. The final concentration of the compound was 250 μM. Resulting solution was kept at 37±0.5° C. and at appropriate time intervals a 20 μL aliquote of reaction solution was analysed by RP-HPLC.
as §1

Setting [3] is: drug added 10 min before stimulus, read-out: Platelet Aggregation IC50 (collagen 95%) 10 min.
Where [4] appears, read: drug added 30 min before stimulus, read-out: Platelet Aggregation IC50 (collagen 95%) 30 min.

Like-named read-outs stand apart in the source and are kept apart here.

Turning to `CC(=O)Oc1ccccc1C(=O)OCOC(=O)c1ccc(CCCO[N+](=O)[O-])cc1` [(12), ({4-[3-(Nitrooxy)propyl]benzoyl}oxy)methyl 2-(acetyloxy)benzoate], the EC50 with rat aorta strips was 75 ± 14 nM. Also, the IC50 in the data set with human platelets (setting [3]) was 41000 nM; with human platelets (setting [4]), 14000 nM.

For `CC(=O)Oc1ccccc1C(=O)OCOC(=O)c1ccc(CC(CO[N+](=O)[O-])O[N+](=O)[O-])cc1` (centres unmarked) [(1), ({4-[2,3-Bis(nitrooxy)propyl]benzoyl}oxy)methyl 2-(acetyloxy)benzoate], the EC50 in the data set with rat aorta strips was found to be 52 ± 7 nM. For the same compound, the half-life at 250 μM in data set [1] was determined as 3.4 min. In data set [2], the “Stability in buffered solutions pH 1 % unchanged after 6 h” value was >98% and the “Stability in buffered solutions pH 7.4 % unchanged after 6 h” value worked out at 100%.

As to `CC(=O)Oc1ccccc1C(=O)OCOC(=O)c1ccc(OCCCO[N+](=O)[O-])cc1` [(2), ({4-[3-(Nitrooxy)propoxy]benzoyl}oxy)methyl 2-(acetyloxy)benzoate], in the data set with rat aorta strips, the EC50 came to 17 ± 3 nM. Also, in data set [1], the half-life at 250 μM came to 3 min. Moreover, in data set [2], the “Stability in buffered solutions pH 1 % unchanged after 6 h” value is listed as >98% and the “Stability in buffered solutions pH 7.4 % unchanged after 6 h” value is recorded as >98%.

Turning to `CC(=O)Oc1ccccc1C(=O)OCOC(=O)c1ccc(OCC(CO[N+](=O)[O-])O[N+](=O)[O-])cc1` (centres unmarked) [(3), ({4-[2,3-Bis(nitrooxy)propoxy]benzoyl}oxy)methyl 2-(acetyloxy)benzoate], the EC50 with rat aorta strips was determined as 41 ± 7 nM. Besides, in data set [1], the half-life at 250 μM was determined as 5.4 min. For the same compound, in data set [2], the “Stability in buffered solutions pH 1 % unchanged after 6 h” value was >98% and the “Stability in buffered solutions pH 7.4 % unchanged after 6 h” value is >98%.

As for `CC(=O)Oc1ccccc1C(=O)OCOC(=O)CCCCO[N+](=O)[O-]` [(4)], the EC50 with rat aorta strips was determined as 1900 ± 500 nM.

Turning to `CC(=O)Oc1ccccc1C(=O)OCOC(=O)CCCCC(CO[N+](=O)[O-])O[N+](=O)[O-]` (centres unmarked) [(8), {[6,7-Bis(nitrooxy)heptanoyl]oxy}methyl 2-(acetyloxy)benzoate], in the data set on rat aorta strips, the EC50 amounted to 520 ± 90 nM. Moreover, in data set [1], the half-life at 250 μM is 2.5 min. For the same compound, in data set [2], the “Stability in buffered solutions pH 1 % unchanged after 6 h” value is given as >98% and the “Stability in buffered solutions pH 7.4 % unchanged after 6 h” value came to 100%.

Turning to `CC(=O)Oc1ccccc1C(=O)OCOC(=O)c1ccc(SCc2no[n+]([O-])c2C#N)cc1` [(22), [(4-{[(3-Cyano-furoxan-4-yl)methyl]thio}benzoyl)oxy]methyl 2-(acetyloxy)benzoate], the melting point lay in the range of 98.5 to 101.5 °C.

As to `CC(=O)Oc1ccccc1C(=O)OCOC(=O)CCCC(CO[N+](=O)[O-])O[N+](=O)[O-]` (centres unmarked) [(6), {[5,6-Bis(nitrooxy)hexanoyl]oxy}methyl 2-(acetyloxy)benzoate], in the data set with rat aorta strips, the concentration giving a half-maximal response (EC50) turned out to be 390 ± 60 nM. Moreover, in data set [1], the half-life at 250 μM stood at 2.7 min. In data set [2], the “Stability in buffered solutions pH 1 % unchanged after 6 h” value is given as >98% and the “Stability in buffered solutions pH 7.4 % unchanged after 6 h” value is on record as 100%.

As to `CC(=O)Oc1ccccc1C(=O)OCOC(=O)c1ccc(SCc2no[n+]([O-])c2C)cc1` [(20), [(4-{[(3-Methyl-furoxan-4-yl)methyl]thio}benzoyl)oxy]methyl 2-(acetyloxy)benzoate], the melting point fell in the range of 96 to 97 °C.

As to `CC(=O)Oc1ccccc1C(=O)OCOC(=O)c1ccccc1OC(=O)CCC(CO[N+](=O)[O-])O[N+](=O)[O-]` (centres unmarked) [(13), [(2-{[4,5-Bis(nitrooxy)pentanoyl]oxy}benzoyl)oxy]methyl 2-(acetyloxy)benzoate], the EC50 with rat aorta strips worked out at 82 ± 14 nM.

For `CC(=O)Oc1ccccc1C(=O)OCOC(=O)c1ccc(SCCCO[N+](=O)[O-])cc1` [(11), [(4-{[3-(Nitrooxy)propyl]thio}benzoyl)oxy]methyl 2-(acetyloxy)benzoate], in data set [1], the half-life at 250 μM is 2 min. In data set [2], the “Stability in buffered solutions pH 1 % unchanged after 6 h” value is >98% and the “Stability in buffered solutions pH 7.4 % unchanged after 6 h” value was >98%.

As for `CC(=O)Oc1ccccc1C(=O)OC(C)OC(=O)c1ccc(SCCCO[N+](=O)[O-])cc1` (centres unmarked) [(24), 1-{[4-([3-(nitrooxy)propyl]thio}benzoyl)oxy]ethyl 2-(acetyloxy)Benzoate], the half-life at 250 μM in data set [1] came to 4.2 min. In addition, in data set [2], the “Stability in buffered solutions pH 1 % unchanged after 6 h” value is reported as >98% and the “Stability in buffered solutions pH 7.4 % unchanged after 6 h” value is reported as >98%.

In the case of `CC(=O)Oc1ccccc1C(=O)OCOC(=O)CCCCCCO[N+](=O)[O-]` [(7), {[7-(Nitrooxy)heptanoyl]oxy}methyl 2-(acetyloxy)benzoate], the EC50 in the data set with rat aorta strips is 1600 ± 200 nM.

On to `CC(=O)Oc1ccccc1C(=O)OCOC(=O)Cc1ccc(OCCCO[N+](=O)[O-])cc1` [(9)], for which, in the data set on rat aorta strips, the 50% effective concentration (EC50) came to 300 ± 60 nM. Further, the half-life at 250 μM in data set [1] came to 1.5 min. In data set [2], the “Stability in buffered solutions pH 1 % unchanged after 6 h” value is reported as >98% and the “Stability in buffered solutions pH 7.4 % unchanged after 6 h” value is recorded as >98%.

Take `CC(=O)Oc1ccccc1C(=O)OCOC(=O)Cc1ccc(OCC(CO[N+](=O)[O-])O[N+](=O)[O-])cc1` (centres unmarked) [(10), [(2-{4-[2,3-Bis(nitrooxy)propoxy]phenyl}acetyl)oxy]methyl 2-(acetyloxy)benzoate]: in the data set on rat aorta strips, the EC50 stood at 270 ± 50 nM.

For the compound `CC(=O)Oc1ccccc1C(=O)OCOC(=O)CCCCCO[N+](=O)[O-]` [(5), {[6-(Nitrooxy)hexanoyl]oxy}methyl 2-(acetyloxy)benzoate], in the data set with rat aorta strips, the EC50 came to 1200 ± 200 nM.

For `CC(=O)Oc1ccccc1C(=O)O` [Aspirin, reference compound], in the data set with rat aorta strips, the “vasodilating activity EC50 ± SE” value is reported as “no effect”. Besides, the half-life at 250 μM in data set [1] is 63 min.

Turning to `CC(=O)Oc1ccccc1C(=O)OCOC(=O)c1ccc(OCCCO[N+](=O)[O-])cc1O` [(14), {[2-(Acetyloxy)benzoyl]oxy}methyl 2-hydroxy-4-[3-(nitrooxy)propoxy]benzoate], the EC50 in the data set with rat aorta strips was 8 ± 1.1 nM.

Take `CC(=O)Oc1ccccc1C(=O)OCOC(=O)c1ccc(S(=O)(=O)CCCO[N+](=O)[O-])cc1` [(15), [(4-{[3-(Nitrooxy)propyl]sulfonyl}benzoyl)oxy]methyl 2-(acetyloxy)benzoate]: the half-life at 250 μM in data set [1] is 1 min; in data set [2] (phosphate buffer 50 mM pH 7.4, phosphate buffer pH 7.4, 37 °C, read-out: t1/2 in buffered solution pH 7.4) it was ~720 min. For the same compound, the “Stability in buffered solutions pH 1 % unchanged after 6 h” value in data set [2] was >98%. The “Stability in buffered solutions pH 7.4 % unchanged after 6 h” value in data set [2] came to 70%. The IC50 in the data set on human platelets (setting [3]) was 34000 nM; in the data set on human platelets (setting [4]), 17000 nM.

In turn, `CC(=O)Oc1ccccc1C(=O)OCOC(=O)c1ccc(SCc2no[n+]([O-])c2C(N)=O)cc1` [(21), [(4-{[(3-Aminocarbonyl-furoxan-4-yl)methyl]thio}benzoyl)oxy]methyl 2-(acetyloxy)benzoate] displayed a melting point of 149 to 151 °C.

Take `CC(=O)Oc1ccccc1C(=O)OCOC(=O)c1ccc(SCC(CO[N+](=O)[O-])O[N+](=O)[O-])cc1` (centres unmarked) [(16), [(4-{[2,3-Bis(nitrooxy)propyl]thio}benzoyl)oxy]methyl 2-(acetyloxy)benzoate]: in data set [1], the half-life at 250 μM turned out to be 4.8 min. For the same compound, in data set [2], the “Stability in buffered solutions pH 1 % unchanged after 6 h” value was >98% and the “Stability in buffered solutions pH 7.4 % unchanged after 6 h” value is >98%.
